Measurements as given in US20220195379A1, “METHOD OF TESTTING INHIBITORY EFFECT OF CARBON DIOXIDE ON SPOILAGE CAUSING ABILITY OF SHEWANELLA PUTREFACIENS” (Shanghai Ocean University, priority 2022, published 2022).

Tested on: Shewanella putrefaciens
Assay: Inhibitory effect of CO2 on growth and spoilage causing ability, inoculated fillets in modified atmosphere packaging
Conditions: stored in the presence of CO2, versus control group
Protocol: Pre-frozen Shewanella putrefaciens (stored at −80° C. or less) was thawed at 30±2° C., inoculated to 5-10 mL of TSB, and cultured under shaking for 12 h to obtain a primary culture solution.
The primary culture solution was inoculated into another TSB liquid medium at an inoculation amount of 1% by weight, which was cultured under shaking for 6 h to obtain a bacterial suspension with a concentration of 10^7 CFU/mL.
A large yellow croaker with a weight of 1000±50 g was processed, and cut into a plurality of 100-g slices, which were washed with 0-4° C. water, and dried to prepare a plurality of samples. The large yellow croaker was oxygenated in a foam box during the transportation, and processed by bloodletting, evisceration, and head removal.
The samples were immersed into a 75% ethanol solution for 30 s, washed with sterile distilled water 3 times, and subjected to ultraviolet sterilization for 20 min to obtain a plurality of sterilized samples, where a mass ratio of the ethanol solution to the samples was 3:1. The bacterial suspension was diluted to a concentration of 10^4 CFU/mL, and inoculated to the sterilized samples to obtain a plurality inoculated samples, where the diluted bacterial suspension was 10% by weight of each sterilized sample such that a bacterial concentration of each sterilized sample was lower than or equal to 10^5 CFU/mL. […]

Compound: O=C=O [CO2, carbon dioxide]
- Growth and reproduction rate of the Shewanella putrefaciens: significantly lower than that of the control group
